Among the data in PubChem BioAssay (NCI) are TGI values, retold here.

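Growth conditions: 96-well plates. Treatment: test compound, 48 hours, 5 concentrations. Analysis: linear interpolation between bracketing concentrations; unreached endpoints set to highest concentration. TGI is the concentration that stops growth completely.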

Test systems include OVCAR-3 ovarian; SF-268 CNS; SNB-19 CNS; SK-MEL-28 melanoma; RXF 393 renal; SK-MEL-2 melanoma; HOP-62 NSCLC; UO-31 renal; LOX IMVI melanoma.
Holding throughout (experiment): NCI-60 cell line screen, 48 h

Turning to `COC(=O)c1cc2c3c(cc(N(C)C)c2[nH]1)N(C(=O)c1cc2cc(OC)c(OC)c(OC)c2[nH]1)CC3CCl` (stereo not drawn), the TGI in the test on OVCAR-3 ovarian was 0.0136 µM; with SF-268 CNS it was 0.127 µM; with SNB-19 CNS, 0.0814 µM; in the test with SK-MEL-28 melanoma, 0.0143 µM; in the test with RXF 393 renal, under 0.0025 µM; in the test with SK-MEL-2 melanoma, 0.0659 µM. For the same compound, the TGI in the test on HOP-62 NSCLC worked out at 0.00774 µM.

For `Cc1ccc(NP(=O)(Oc2ccccc2)N(CCCl)CCCl)cc1` (stereo not drawn), the TGI in the test with OVCAR-3 ovarian, in the test on SF-268 CNS, in the test on UO-31 renal, in the test with SK-MEL-28 melanoma, in the test on SK-MEL-2 melanoma and in the test on HOP-62 NSCLC was over 100 µM throughout.

In the case of `CCCCCCCCCCCCCCCc1ccc(OCC(O)CO)cc1` (stereo not drawn), the TGI was 32.1 µM with LOX IMVI melanoma; 49.3 µM in the test on OVCAR-3 ovarian; 82.4 µM in the test on SF-268 CNS; over 100 µM in the test with UO-31 renal; over 100 µM in the test on SNB-19 CNS; 62.2 µM in the test on SK-MEL-28 melanoma. In addition, the TGI is 35.4 µM in the test on RXF 393 renal, 42.7 µM in the test with SK-MEL-2 melanoma and over 100 µM with HOP-62 NSCLC.

Take `N#CC(c1nc2ccccc2s1)c1ncnc(Cl)c1[N+](=O)[O-]` (stereo not drawn): the TGI was 33.1 µM in the test on LOX IMVI melanoma; 47.8 µM in the test on OVCAR-3 ovarian; 32.9 µM with SF-268 CNS; 91.3 µM in the test with UO-31 renal; over 100 µM with SNB-19 CNS; 38.7 µM with SK-MEL-28 melanoma. Further, the values for the TGI in the test on RXF 393 renal and in the test with HOP-62 NSCLC were 89 µM and 97.2 µM, respectively.

Regarding `C/C(=C\c1ccccc1)C(=O)NCc1ccc(C(=O)NCCC(C)C)cc1`, the TGI in the test on LOX IMVI melanoma, with OVCAR-3 ovarian, in the test on SF-268 CNS, in the test on UO-31 renal, in the test with SNB-19 CNS and in the test with SK-MEL-28 melanoma was over 100 µM in each case. Also, the TGI was 63.4 µM in the test with RXF 393 renal, over 100 µM in the test with SK-MEL-2 melanoma and 48 µM with HOP-62 NSCLC.

Regarding `CN(C)c1nc(N(C)C)nc(N(C)CN(C)c2ccc(Cl)cc2)n1`, the TGI in the test on LOX IMVI melanoma, with OVCAR-3 ovarian, in the test with SF-268 CNS, in the test on UO-31 renal, in the test on SNB-19 CNS and in the test with SK-MEL-28 melanoma was over 100 µM throughout. Further, the TGI with RXF 393 renal and in the test on SK-MEL-2 melanoma was over 100 µM each time.

`O=C(O)c1cc(=O)[nH]c(SCc2ccccc2)n1`: the TGI in the test on LOX IMVI melanoma, in the test with OVCAR-3 ovarian, with SF-268 CNS, in the test on UO-31 renal, with SNB-19 CNS and with SK-MEL-28 melanoma was over 100 µM each time. Besides, the TGI in the test with RXF 393 renal, in the test with SK-MEL-2 melanoma and with HOP-62 NSCLC was over 100 µM each time.

Regarding `Cc1nc2c(n1C)C(=O)c1nc(CBr)[nH]c(=O)c1C2=O`, the TGI in the test with LOX IMVI melanoma, with SF-268 CNS, with UO-31 renal, in the test on SNB-19 CNS, in the test on SK-MEL-28 melanoma and with RXF 393 renal was over 100 µM throughout.

Turning to `C=CCc1cc(-c2cc(CC=C)c(O)c(CNC)c2)cc(CNC)c1O`, the TGI with LOX IMVI melanoma was determined as 27.2 µM; in the test on OVCAR-3 ovarian, 27.9 µM; in the test on SF-268 CNS, 33.3 µM; with UO-31 renal, 25.8 µM; in the test with SNB-19 CNS, 26.1 µM; in the test with SK-MEL-28 melanoma it was 34 µM. The TGI with SK-MEL-2 melanoma stood at 32.9 µM; in the test on HOP-62 NSCLC, 33.4 µM.

As for `CSc1nc(NC2OCC(OC(C)=O)C(OC(C)=O)C2OC(C)=O)c(N=C(C)C(C)=O)c(=O)[nH]1` (stereo not drawn), the TGI with LOX IMVI melanoma, in the test on SF-268 CNS, with SNB-19 CNS, in the test on SK-MEL-28 melanoma, in the test on RXF 393 renal and in the test on SK-MEL-2 melanoma was over 100 µM each time.

With `N#Cc1c(NC(=S)Nc2ccc(Cl)cc2)sc2c1CCCC2`, the TGI in the test with LOX IMVI melanoma, in the test with OVCAR-3 ovarian, in the test on SF-268 CNS, in the test on UO-31 renal, with SNB-19 CNS and in the test on SK-MEL-28 melanoma was over 100 µM each time. Further, the TGI in the test on RXF 393 renal and in the test with SK-MEL-2 melanoma was over 100 µM each time.

For the compound `CC(C)(C)OC(=O)NCC(=O)NC1c2ccsc2/C(=N/O)[C@H]1O` (stereo partly drawn), the TGI in the test on LOX IMVI melanoma, in the test with OVCAR-3 ovarian, with UO-31 renal, in the test on SNB-19 CNS, with SK-MEL-28 melanoma and in the test on RXF 393 renal was over 100 µM throughout. Moreover, the TGI in the test with SK-MEL-2 melanoma and with HOP-62 NSCLC was over 100 µM throughout.

For the compound `N#Cc1c2c(c(Nc3cccc(C(F)(F)F)c3)n3c1nc1ccccc13)CCC2`, the TGI in the test on LOX IMVI melanoma, in the test on OVCAR-3 ovarian, in the test on SF-268 CNS, in the test on SK-MEL-28 melanoma, in the test on RXF 393 renal and with HOP-62 NSCLC was over 100 µM in each case.
